Data on 22 compounds can be found in PubChem BioAssay AID248 (DTP/NCI, 2004).

The structures appear in SMILES notation. Several values for one entry are separate records, joined by “and”; a condition that tells them apart may be missing. Equal values may be shown once. Inconclusive results and toxic doses are left out.

The assay concerns L1210 leukemia ip in BDF1 mice, survival T/C. Nature of the assay: NCI In Vivo Anticancer Drug Screen. Data for tumor model L1210 Leukemia (intraperitoneal) in B6D2F1 (BDF1) mice. The conditions noted are these: endpoint: mean survival time, higher = longer survival. An outline of the steps:
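Tumor was transplanted into mice, which were then dosed with test compound or vehicle alone. Survival was recorded for each group, and the treated figure was expressed relative to the control figure.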

Setting [1] is: dose: 100.0 mg/kg/injection, schedule: Q01DX009 (ip), vehicle: Klucel (hydroxypropylcellulose) (HPC).
The mark [2] stands for this setting: dose: 200.0 mg/kg/injection, schedule: Q01DX009 (ip), vehicle: Klucel (hydroxypropylcellulose) (HPC).
Where [3] appears, read: dose: 400.0 mg/kg/injection, schedule: Q01DX009 (ip), vehicle: Klucel (hydroxypropylcellulose) (HPC).
Where [4] appears, read: dose: 100.0 mg/kg/injection, schedule: Q01DX001 (ip), vehicle: carboxymethylcellulose (CMC).
Setting [5] is: dose: 200.0 mg/kg/injection, schedule: Q01DX001 (ip), vehicle: carboxymethylcellulose (CMC).
The mark [6] stands for this setting: dose: 400.0 mg/kg/injection, schedule: Q01DX001 (ip), vehicle: carboxymethylcellulose (CMC).
The mark [7] stands for this setting: dose: 100.0 mg/kg/injection, schedule: Q04DX002 (ip), vehicle: Klucel (hydroxypropylcellulose) (HPC).
[8] abbreviates: dose: 200.0 mg/kg/injection, schedule: Q04DX002 (ip), vehicle: Klucel (hydroxypropylcellulose) (HPC).
The mark [9] stands for this setting: dose: 400.0 mg/kg/injection, schedule: Q04DX002 (ip), vehicle: Klucel (hydroxypropylcellulose) (HPC).
The mark [10] stands for this setting: dose: 5.0 mg/kg/injection, schedule: Q01DX001 (ip), vehicle: saline.
Setting [11] is: dose: 10.0 mg/kg/injection, schedule: Q01DX001 (ip), vehicle: saline.
Where [12] appears, read: dose: 100.0 mg/kg/injection, schedule: Q01DX001 (ip), vehicle: saline.
Where [13] appears, read: dose: 100.0 mg/kg/injection, schedule: Q04DX003 (ip), vehicle: saline.
The mark [14] stands for this setting: dose: 100.0 mg/kg/injection, schedule: Q01DX009 (ip), vehicle: saline with Tween-80.
Where [15] appears, read: dose: 400.0 mg/kg/injection, schedule: Q01DX009 (ip), vehicle: saline with Tween-80.

As for `COc1ccc2c(c1)CC(OC)c1cc3c(nc1-2)-c1ccccc1CC3` (stereo not drawn), the T/C runs as follows: under setting [1], 96 % of control; (dose: 100.0 mg/kg/injection, schedule: Q04DX003 (ip), vehicle: Klucel (hydroxypropylcellulose) (HPC)) 102 % of control; under setting [2], 103 % of control; (dose: 200.0 mg/kg/injection, schedule: Q04DX003 (ip), vehicle: Klucel (hydroxypropylcellulose) (HPC)) 100 % of control; under setting [3], 100 % of control; (dose: 400.0 mg/kg/injection, schedule: Q04DX003 (ip), vehicle: Klucel (hydroxypropylcellulose) (HPC)) 98 % of control.
Consider `COc1cc2ccc3c4ccccc4c[n+](C)c3c2cc1OC`, for which the T/C (dose: 18.75 mg/kg/injection, schedule: Q01DX001 (ip), vehicle: saline with Tween-80) was 106 % of control; the T/C (dose: 37.5 mg/kg/injection, schedule: Q01DX001 (ip), vehicle: saline with Tween-80) was 106 % of control; the T/C (dose: 75.0 mg/kg/injection, schedule: Q01DX001 (ip), vehicle: saline with Tween-80) is 113 % of control.
Consider `Cc1cc(C)c(O)c(CN(C)Cc2c(C)[nH]c(=O)[nH]c2=O)c1`, for which the T/C is 98 % of control under setting [4], 91 % of control under setting [5] and 91 % of control under setting [6].
Regarding `Cc1cc(C)c(NC(=O)Nc2cccc(F)c2)c(C)c1`, the T/C reads like this: under setting [1], 96 % of control; under setting [7], 98 % of control; under setting [2], 105 % of control; under setting [8], 102 % of control; under setting [9], 102 % of control.
Consider `CC1(c2ccccc2)OCC(CCl)O1` (stereo not drawn), for which the T/C (dose: 222.0 mg/kg/injection, schedule: Q01DX Z (ip), vehicle: saline) was 95 % of control; the T/C (dose: 333.0 mg/kg/injection, schedule: Q01DX Z (ip), vehicle: saline) is 95 % of control; the T/C (dose: 500.0 mg/kg/injection, schedule: Q01DX Z (ip), vehicle: saline) is 91 % of control.
For the compound `CC(C)[P+](c1ccccc1)(c1ccccc1)c1ccccc1`, the T/C is, setting by setting: under setting [10], 108 % of control; under setting [11], 111 % of control; (dose: 16.25 mg/kg/injection, schedule: Q01DX009 (ip), vehicle: saline) 100 % of control; (dose: 20.0 mg/kg/injection, schedule: Q01DX001 (ip), vehicle: saline) 118 % of control; (dose: 25.0 mg/kg/injection, schedule: Q04DX003 (ip), vehicle: saline) 113 % of control; (dose: 40.0 mg/kg/injection, schedule: Q01DX001 (ip), vehicle: saline) 113 % of control. Further, the T/C was 103 % of control (dose: 50.0 mg/kg/injection, schedule: Q04DX003 (ip), vehicle: saline); 107 % of control and 116 % of control (dose: 65.0 mg/kg/injection, schedule: Q04DX003 (ip), vehicle: saline); 108 % of control under setting [12]; 118 % of control under setting [13]; 90 % of control (dose: 150.0 mg/kg/injection, schedule: Q04DX003 (ip), vehicle: saline).
Consider `Cc1ccccc1N1OS(=O)(=O)CC1(C#N)c1ccccc1` (stereo not drawn), for which the T/C under setting [14] is 98 % of control; the T/C (dose: 200.0 mg/kg/injection, schedule: Q01DX009 (ip), vehicle: saline with Tween-80) is 102 % of control; the T/C under setting [15] is 96 % of control.
Take `Cc1no[n+]([O-])c1NC(=O)OCc1ccccc1`: the T/C is 98 % of control under setting [7], 102 % of control under setting [8] and 98 % of control under setting [9].
For the compound `Cc1ccc2[nH]c3cc4ccncc4cc3c2c1`, the T/C reads like this: (dose: 100.0 mg/kg/injection, schedule: Q01DX001 (ip), vehicle: Klucel (hydroxypropylcellulose) (HPC)) 89 % of control; (dose: 200.0 mg/kg/injection, schedule: Q01DX001 (ip), vehicle: Klucel (hydroxypropylcellulose) (HPC)) 94 % of control; (dose: 400.0 mg/kg/injection, schedule: Q01DX001 (ip), vehicle: Klucel (hydroxypropylcellulose) (HPC)) 93 % of control.
Turning to `Cc1cccc(SC(=O)Nc2ccc([N+](=O)[O-])cc2Cl)c1`, the T/C runs as follows: under setting [7], 100 % of control; under setting [8], 116 % of control; under setting [9], 92 % of control.
As to `COC(=O)c1[nH]cnc1/N=N/N(C)C.[Cl][Cu][Cl]`, the T/C by setting is: (dose: 9.0 mg/kg/injection, schedule: Q01DX009 (ip), vehicle: saline) 106 % of control and 115 % of control; (dose: 13.0 mg/kg/injection, schedule: Q01DX009 (ip), vehicle: saline) 107 % of control and 108 % of control; (dose: 20.0 mg/kg/injection, schedule: Q01DX009 (ip), vehicle: saline) 122 % of control.
For `Cc1cc2ccccc2[n+](C)c1-c1ccccc1Br`, the T/C is 108 % of control under setting [10] and 95 % of control under setting [11].
Consider `Nc1cnccc1N1CCN(c2ccc(Cl)c(Cl)c2)CC1`, for which, under “dose: 100.0 mg/kg/injection, schedule: Q01DX009 (ip), vehicle: gum acacia”, the T/C was 95 % of control.
`CN(CCO)N=Nc1ccccc1C(N)=O`: the T/C was 117 % of control under setting [14]; 105 % of control (dose: 100.0 mg/kg/injection, schedule: Q04DX003 (ip), vehicle: saline with Tween-80); 110 % of control (dose: 200.0 mg/kg/injection, schedule: Q04DX003 (ip), vehicle: saline with Tween-80); 162 % of control and 177 % of control under setting [15]; 104 % of control (dose: 400.0 mg/kg/injection, schedule: Q04DX003 (ip), vehicle: saline with Tween-80); 176 % of control (dose: 600.0 mg/kg/injection, schedule: Q01DX009 (ip), vehicle: saline with Tween-80).
As to `Cc1cccc(NC(=O)NCCCl)c1C`, the T/C reads like this: under setting [4], 91 % of control; under setting [5], 91 % of control; under setting [6], 93 % of control.
Turning to `O=C(N/N=C/c1ccccc1)c1ccc(Cl)c(Cl)c1`, the T/C by setting is: (dose: 100.0 mg/kg/injection, schedule: Q04DX003 (ip), vehicle: other) 100 % of control; (dose: 200.0 mg/kg/injection, schedule: Q04DX003 (ip), vehicle: other) 92 % of control; (dose: 400.0 mg/kg/injection, schedule: Q04DX003 (ip), vehicle: other) 89 % of control.
Turning to `CCc1ccc(/C(C#N)=C/c2cccc3ccccc23)cc1`, the T/C is, setting by setting: (dose: 100.0 mg/kg/injection, schedule: Q04DX002 (ip), vehicle: alcohol) 97 % of control; (dose: 200.0 mg/kg/injection, schedule: Q04DX002 (ip), vehicle: alcohol) 105 % of control; (dose: 400.0 mg/kg/injection, schedule: Q04DX002 (ip), vehicle: alcohol) 91 % of control.
As for `O=S(=O)(/N=[N+](\[O-])c1ccccc1)c1ccccc1`, the T/C was 103 % of control under setting [12]; 100 % of control (dose: 200.0 mg/kg/injection, schedule: Q01DX001 (ip), vehicle: saline); 103 % of control (dose: 400.0 mg/kg/injection, schedule: Q01DX001 (ip), vehicle: saline).
For `O=C1C(Cl)=C(Nc2ccc(Cl)cc2)C(=O)c2ccccc21`, the T/C (dose: 50.0 mg/kg/injection, schedule: Q01DX001 (ip), vehicle: carboxymethylcellulose (CMC)) was 95 % of control; the T/C under setting [4] was 89 % of control; the T/C under setting [5] was 98 % of control; the T/C under setting [6] was 93 % of control.
Regarding `CC(=O)Nc1onc(C)c1N`, the T/C by setting is: (dose: 50.0 mg/kg/injection, schedule: Q01DX009 (ip), vehicle: saline) 103 % of control; (dose: 100.0 mg/kg/injection, schedule: Q01DX009 (ip), vehicle: saline) 98 % of control; under setting [13], 94 % of control; (dose: 200.0 mg/kg/injection, schedule: Q01DX009 (ip), vehicle: saline) 116 % of control and 88 % of control; (dose: 200.0 mg/kg/injection, schedule: Q04DX003 (ip), vehicle: saline) 94 % of control; (dose: 400.0 mg/kg/injection, schedule: Q04DX003 (ip), vehicle: saline) 92 % of control.
As to `C[CH2][Hg][Cl]`, the T/C is, setting by setting: (dose: 12.5 mg/kg/injection, schedule: Q04DX002 (ip), vehicle: Klucel (hydroxypropylcellulose) (HPC)) 97 % of control; (dose: 25.0 mg/kg/injection, schedule: Q04DX002 (ip), vehicle: Klucel (hydroxypropylcellulose) (HPC)) 94 % of control; under setting [12], 97 % of control.
Turning to `FC(F)(F)c1cccc(NC(=S)NCc2ccco2)c1`, the T/C by setting is: under setting [1], 90 % of control; under setting [2], 93 % of control; under setting [3], 96 % of control.
